Holding throughout (type): cell-based
Experiment [1] deals with Multidrug resistance-associated protein 1 (Homo sapiens, UniProt P33527). The experiment can be described thus: Inhibition of ABCC1 in human NCI-H69AR cells assessed as increase in rhodamine123 fluorescence intensity using rhodamine123 as tracer preincubated for 30 mins followed by rhodamine 123 addition and measured for 180 mins by flow cytometry.
Experiment [2] deals with T1, Solute carrier organic anion transporter family member 2B1 (Homo sapiens, UniProt O94956).
T1 sequence (O94956 whole entry): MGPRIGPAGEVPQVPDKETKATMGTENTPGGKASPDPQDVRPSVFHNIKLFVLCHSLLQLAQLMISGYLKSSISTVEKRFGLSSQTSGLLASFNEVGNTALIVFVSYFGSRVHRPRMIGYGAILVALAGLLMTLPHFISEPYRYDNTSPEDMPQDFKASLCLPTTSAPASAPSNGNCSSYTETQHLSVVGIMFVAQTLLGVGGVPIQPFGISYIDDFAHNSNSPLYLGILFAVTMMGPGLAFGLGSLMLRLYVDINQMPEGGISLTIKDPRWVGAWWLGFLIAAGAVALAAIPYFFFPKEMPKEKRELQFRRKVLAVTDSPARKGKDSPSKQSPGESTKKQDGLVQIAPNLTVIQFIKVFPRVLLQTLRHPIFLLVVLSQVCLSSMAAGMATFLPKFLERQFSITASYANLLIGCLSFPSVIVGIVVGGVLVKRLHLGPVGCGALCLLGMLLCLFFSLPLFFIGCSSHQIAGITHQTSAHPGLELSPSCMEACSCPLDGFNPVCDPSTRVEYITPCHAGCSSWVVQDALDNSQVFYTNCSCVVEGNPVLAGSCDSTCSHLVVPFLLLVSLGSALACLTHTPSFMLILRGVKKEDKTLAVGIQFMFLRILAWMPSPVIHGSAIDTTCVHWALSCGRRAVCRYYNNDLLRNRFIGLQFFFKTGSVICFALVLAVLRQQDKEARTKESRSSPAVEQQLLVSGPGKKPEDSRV
The experiment can be described thus: Inhibition of OATP2B1 (unknown origin) transfected in human A-431 cells assessed as inhibition of pyranine uptake preincubated for 5 mins followed by pyranine addition and measured after 15 mins by fluorescence based analysis.

For experiment [3], the target named is T2, ATP-binding cassette sub-family C member 10 (Homo sapiens, UniProt Q5T3U5).
T2 sequence (Q5T3U5 whole entry): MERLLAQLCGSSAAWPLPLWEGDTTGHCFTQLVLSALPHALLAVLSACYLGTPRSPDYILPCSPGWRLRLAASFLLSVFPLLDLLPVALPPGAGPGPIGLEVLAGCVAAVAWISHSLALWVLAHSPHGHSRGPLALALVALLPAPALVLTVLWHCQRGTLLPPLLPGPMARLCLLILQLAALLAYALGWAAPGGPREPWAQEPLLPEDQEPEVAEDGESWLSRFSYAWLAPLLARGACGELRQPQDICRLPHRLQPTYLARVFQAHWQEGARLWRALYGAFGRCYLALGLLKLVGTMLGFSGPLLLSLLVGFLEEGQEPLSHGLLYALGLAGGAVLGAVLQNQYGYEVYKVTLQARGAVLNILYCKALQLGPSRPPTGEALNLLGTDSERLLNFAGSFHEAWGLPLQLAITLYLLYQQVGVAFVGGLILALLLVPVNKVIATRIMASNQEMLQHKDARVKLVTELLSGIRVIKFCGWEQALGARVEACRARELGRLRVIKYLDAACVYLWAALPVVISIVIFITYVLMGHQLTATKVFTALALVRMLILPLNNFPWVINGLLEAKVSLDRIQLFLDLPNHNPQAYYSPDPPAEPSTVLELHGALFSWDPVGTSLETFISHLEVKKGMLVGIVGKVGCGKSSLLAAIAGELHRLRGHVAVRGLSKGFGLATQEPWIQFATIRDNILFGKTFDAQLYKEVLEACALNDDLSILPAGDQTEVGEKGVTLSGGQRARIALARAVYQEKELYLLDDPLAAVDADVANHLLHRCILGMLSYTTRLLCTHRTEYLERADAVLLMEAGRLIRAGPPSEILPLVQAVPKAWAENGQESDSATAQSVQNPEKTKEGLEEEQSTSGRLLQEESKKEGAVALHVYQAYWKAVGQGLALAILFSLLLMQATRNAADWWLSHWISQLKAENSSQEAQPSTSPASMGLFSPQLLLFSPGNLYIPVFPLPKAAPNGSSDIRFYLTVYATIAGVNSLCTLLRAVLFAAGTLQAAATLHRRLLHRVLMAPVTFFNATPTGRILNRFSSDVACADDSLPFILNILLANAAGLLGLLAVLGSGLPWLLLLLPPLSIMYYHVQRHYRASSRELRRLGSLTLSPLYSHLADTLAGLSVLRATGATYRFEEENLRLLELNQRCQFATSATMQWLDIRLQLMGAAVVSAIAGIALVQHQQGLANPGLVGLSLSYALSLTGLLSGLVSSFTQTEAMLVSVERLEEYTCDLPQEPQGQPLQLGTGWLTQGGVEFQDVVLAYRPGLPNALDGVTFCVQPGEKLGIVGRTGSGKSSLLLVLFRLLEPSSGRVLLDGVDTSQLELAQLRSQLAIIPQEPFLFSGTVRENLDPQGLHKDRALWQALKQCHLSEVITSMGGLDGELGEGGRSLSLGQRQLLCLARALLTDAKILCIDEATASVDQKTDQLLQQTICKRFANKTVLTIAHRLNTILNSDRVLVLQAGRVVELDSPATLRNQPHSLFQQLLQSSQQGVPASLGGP
The experiment can be described thus: Reversal of ABCC10 (unknown origin) -mediated multidrug resistance transfected in human HEK293 MRP7 cells assessed as increase in paclitaxel-mediated cytotoxicity incubated for 68 hrs in presence of paclitaxel by MTT assay. (In general: Tetrazolium dyes change colour on reduction, which living cells bring about.)

The text below walks through data of ChEMBL document CHEMBL6109064, “Functional and structural polypharmacology of indazole-based privileged ligands to tackle the undruggability of membrane transporters” (Eur J Med Chem, 2025).

Chain of Multidrug resistance-associated protein 1 (P33527 whole entry): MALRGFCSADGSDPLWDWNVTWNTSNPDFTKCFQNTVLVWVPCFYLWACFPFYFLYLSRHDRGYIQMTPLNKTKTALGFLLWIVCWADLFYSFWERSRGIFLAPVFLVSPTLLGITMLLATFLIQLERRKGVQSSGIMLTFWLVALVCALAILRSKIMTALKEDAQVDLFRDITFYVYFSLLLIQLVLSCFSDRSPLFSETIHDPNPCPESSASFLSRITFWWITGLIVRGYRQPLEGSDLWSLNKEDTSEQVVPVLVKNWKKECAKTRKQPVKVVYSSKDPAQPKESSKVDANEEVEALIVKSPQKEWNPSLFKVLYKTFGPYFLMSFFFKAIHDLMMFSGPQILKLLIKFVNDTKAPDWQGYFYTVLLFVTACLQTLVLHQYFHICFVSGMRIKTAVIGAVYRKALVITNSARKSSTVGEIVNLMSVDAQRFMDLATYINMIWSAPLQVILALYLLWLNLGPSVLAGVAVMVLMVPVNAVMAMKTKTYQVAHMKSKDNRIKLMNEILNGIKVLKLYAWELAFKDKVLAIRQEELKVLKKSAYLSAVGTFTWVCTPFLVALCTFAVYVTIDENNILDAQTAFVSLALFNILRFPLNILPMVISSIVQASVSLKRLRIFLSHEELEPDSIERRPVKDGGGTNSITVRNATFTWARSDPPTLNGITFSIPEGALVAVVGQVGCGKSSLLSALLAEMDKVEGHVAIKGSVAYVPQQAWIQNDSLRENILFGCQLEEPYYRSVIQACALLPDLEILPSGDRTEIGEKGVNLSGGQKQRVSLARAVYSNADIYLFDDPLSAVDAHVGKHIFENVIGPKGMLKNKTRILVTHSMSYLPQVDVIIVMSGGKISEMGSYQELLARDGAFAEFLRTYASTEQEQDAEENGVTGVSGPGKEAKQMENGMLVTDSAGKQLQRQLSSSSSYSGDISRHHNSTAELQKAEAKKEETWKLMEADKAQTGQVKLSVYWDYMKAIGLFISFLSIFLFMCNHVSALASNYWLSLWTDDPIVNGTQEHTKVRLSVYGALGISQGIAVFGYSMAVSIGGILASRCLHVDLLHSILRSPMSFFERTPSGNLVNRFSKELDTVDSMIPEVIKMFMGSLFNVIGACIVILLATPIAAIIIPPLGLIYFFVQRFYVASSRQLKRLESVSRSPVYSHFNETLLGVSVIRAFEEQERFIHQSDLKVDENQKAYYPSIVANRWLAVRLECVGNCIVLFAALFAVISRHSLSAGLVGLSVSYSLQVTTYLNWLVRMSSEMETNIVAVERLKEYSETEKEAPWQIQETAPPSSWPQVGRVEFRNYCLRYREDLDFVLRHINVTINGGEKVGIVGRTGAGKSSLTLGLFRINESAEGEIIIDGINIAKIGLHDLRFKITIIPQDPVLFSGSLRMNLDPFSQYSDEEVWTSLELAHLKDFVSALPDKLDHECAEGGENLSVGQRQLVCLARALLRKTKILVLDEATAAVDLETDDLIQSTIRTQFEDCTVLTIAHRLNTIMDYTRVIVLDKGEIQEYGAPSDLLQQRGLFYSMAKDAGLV

As to `COc1cccc(NC(=O)Cn2nc(C(=O)Nc3cccc(OC)c3)c3ccccc32)c1`, the IC50 in experiment [1] (read-out: IC50) is 2660 nM; in experiment [2], 583 nM. Moreover, the EC50 entry in experiment [3] is “Not_active”.
Consider `O=C(Cn1nc(C(=O)Nc2cccnc2)c2ccccc21)Nc1ccc(Cl)cc1`, for which the results for the IC50 in experiment [1] (read-out: IC50) and in experiment [2] were 2900 nM and 155 nM, respectively.
For the compound `COc1cccc(NC(=O)c2nn(CC(=O)Nc3ccccc3OC)c3ccccc23)c1`, the IC50 is 3790 nM in experiment [1] (read-out: IC50) and 124 nM in experiment [2]. Further, the EC50 result in experiment [3] is recorded as “Not_active”.
In the case of `O=C(Cn1nc(C(=O)Nc2ccccn2)c2ccccc21)Nc1cc(Cl)ccc1Cl`, the IC50 result in experiment [1] (nci-h69ar) was “Not_active”; in experiment [2], 167 nM. For the same compound, in experiment [3], the EC50 entry is recorded as “Not_active”.

As usually defined, the IC50 is the concentration at which inhibition is half-maximal.
